In BindingDB's records for doi:10.7270/Q2N58JS6 (University of Pittsburgh, 2007):
pEC50: −log10 of the molar value.

Biological target: Serine/threonine-protein kinase PLK1 (Homo sapiens, UniProt P53350)
Experiment: H2O2 production by redox-active compounds – biochemical, 1 mM DTT, artefact control for Plk1 PBD inhibitor project, dose response (AID 936)

Serine/threonine-protein kinase PLK1, sequence (P53350 whole entry): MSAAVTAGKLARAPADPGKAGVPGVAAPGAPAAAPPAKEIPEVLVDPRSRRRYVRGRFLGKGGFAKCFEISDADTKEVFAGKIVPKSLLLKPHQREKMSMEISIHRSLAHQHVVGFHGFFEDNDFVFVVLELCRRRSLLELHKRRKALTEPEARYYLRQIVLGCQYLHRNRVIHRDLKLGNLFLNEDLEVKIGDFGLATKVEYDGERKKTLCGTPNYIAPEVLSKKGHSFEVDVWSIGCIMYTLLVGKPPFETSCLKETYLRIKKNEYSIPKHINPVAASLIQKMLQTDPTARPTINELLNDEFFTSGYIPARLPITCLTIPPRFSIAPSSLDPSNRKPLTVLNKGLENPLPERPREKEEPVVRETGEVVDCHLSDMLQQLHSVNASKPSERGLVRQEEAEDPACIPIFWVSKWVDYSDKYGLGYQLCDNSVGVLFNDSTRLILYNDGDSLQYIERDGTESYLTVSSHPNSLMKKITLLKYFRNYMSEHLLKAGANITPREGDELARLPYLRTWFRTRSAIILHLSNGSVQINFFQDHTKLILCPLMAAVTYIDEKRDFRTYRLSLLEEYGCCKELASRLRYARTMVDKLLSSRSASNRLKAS

| SMILES | pEC50 |
| --- | --- |
| CC1CCCC(NC2CCCCNC2=O)C1 (stereo unspecified) [3-[(3-methylcyclohexyl)amino]-2-azepanone] | < 4.30 |
| Cc1nc2cccc(C)n2c(=O)c1Cl [3-chloranyl-2,6-dimethyl-pyrido[1,2-a]pyrimidin-4-one] | < 4.30 |
| CCn1cnc2sc(C(=O)N3CCN(c4ccc(OC)cc4)CC3)c(C)c2c1=O [3-ethyl-6-[4-(4-methoxyphenyl)piperazin-1-yl]carbonyl-5-methyl-thieno[2,3-d]pyrimidin-4-one] | < 4.30 |
| O=C1Nc2ccc([N+](=O)[O-])cc2C1(O)N1CCCCC1 (stereo unspecified) [3-hydroxy-5-nitro-3-(1-piperidinyl)-1,3-dihydro-2H-indol-2-one] | < 4.30 |
| CC1CN(C2CC(C)(C)NC(C)(C)C2)CCC1=O (stereo unspecified) [3-methyl-1-(2,2,6,6-tetramethyl-4-piperidinyl)-4-piperidinone] | < 4.30 |
| Cc1ccccc1Oc1ncnc2oc(-c3ccccc3)cc12 [4-(2-methylphenoxy)-6-phenyl-furo[2,3-d]pyrimidine] | < 4.30 |
| CN(C)c1ccc(C(=O)Nc2nc3c(s2)CCCC3)cc1 [4-(dimethylamino)-N-(4,5,6,7-tetrahydro-1,3-benzothiazol-2-yl)benzamide] | < 4.30 |
| CCCc1nc2sc3c(c2c(=O)n1NC(=O)CCC(=O)O)CCCC3 [4-keto-4-[(4-keto-2-propyl-5,6,7,8-tetrahydrobenzothiopheno[2,3-d]pyrimidin-3-yl)amino]butyric acid] | < 4.30 |
| C=CCn1c2ccccc2c2nnc(SCc3ccc4nonc4c3)nc21 [5-[(5-prop-2-enyl-[1,2,4]triazino[5,6-b]indol-3-yl)sulfanylmethyl]-2,1,3-benzoxadiazole] | < 4.30 |
| O=C(CNS(=O)(=O)c1ccc(Br)s1)N1CCCC1 [5-bromanyl-N-(2-oxidanylidene-2-pyrrolidin-1-yl-ethyl)thiophene-2-sulfonamide] | < 4.30 |
| COc1ccc2c3c(cccc13)NN=C2C [6-Methoxy-3-methyl-1H-benzo[de]cinnoline] | < 4.30 |
| Cc1ccc(Cl)cc1N1CCN(S(=O)(=O)c2ccc3c(c2)oc(=O)n3C)CC1 [6-[4-(5-chloranyl-2-methyl-phenyl)piperazin-1-yl]sulfonyl-3-methyl-1,3-benzoxazol-2-one] | < 4.30 |
| O=C1CCN2C=Nc3cccc4ccc1c2c34 [7,8-dihydro-9H-pyrido[1,2,3-cd]perimidin-9-one] | < 4.30 |
| CCOC(=O)c1c2c(n(C)c1C)C(=O)C(=O)c1ccc(Br)cc1-2 [8-bromo-2,3-dimethyl-4,5-dioxo-1-benzo[e]indolecarboxylic acid ethyl ester] | 6.14 |
| Oc1ccc2ccc3cccc[n+]3c2c1 [9-benzo[c]quinolizin-11-iumol;iodide] | < 4.30 |
| O=[N+]([O-])c1ccc(N2CCNCC2)cc1NCC1CCCO1 (stereo unspecified) [(2-nitro-5-piperazino-phenyl)-(tetrahydrofurfuryl)amine] | < 4.30 |
| CCc1noc(C)c1C(=O)N1CCOCC1 [(3-ethyl-5-methyl-1,2-oxazol-4-yl)-morpholin-4-yl-methanone] | < 4.30 |
| CC1Cn2c(nnc2-c2cc3ccccc3cc2O)S1 (stereo unspecified) [(3E)-3-(6-methyl-5,6-dihydro-2H-[1,3]thiazolo[2,3-c][1,2,4]triazol-3-ylidene)naphthalen-2-one] | < 4.30 |
| Nc1cc2nsnc2cc1Br [(6-bromopiazthiol-5-yl)amine] | < 4.30 |
| OCC(CO)(CO)N=Cc1cc(Br)ccc1O [(6E)-4-bromanyl-6-[[[2-(hydroxymethyl)-1,3-bis(oxidanyl)propan-2-yl]amino]methylidene]cyclohexa-2,4-dien-1-one] | < 4.30 |
| CCC(=O)N1CCN(c2ccc(NC(=O)c3ccc4c(c3)OCO4)cc2)CC1 [Benzo[1,3]dioxole-5-carboxylic acid [4-(4-propionyl-piperazin-1-yl)-phenyl]-amide] | < 4.30 |
| O=C(NC1(C(F)(F)F)NC(=O)N(CC2CCCCC2)C1=O)c1ccco1 (stereo unspecified) [MLS000040678] | < 4.30 |
| CCc1nc2cc(Cl)c(Cl)cc2[nH]1 [MLS000064722] | < 4.30 |

Results, then the molecule that gave them:

| pEC50 | SMILES |
| --- | --- |
| 4.55 | O=C(NC(NC(=S)Nc1ccc(Cl)cc1Cl)C(Cl)(Cl)Cl)c1cccc([N+](=O)[O-])c1 (stereo unspecified) [3-nitro-N-[2,2,2-trichloro-1-({[(2,4-dichlorophenyl)amino]carbonothioyl}amino)ethyl]benzamide] |
| < 4.30 | Cc1cccc(C)c1NC1=NC(=S)N(c2ccccc2)C12CCOC(C)(C)C2 (stereo unspecified) [4-(2,6-dimethylanilino)-7,7-dimethyl-1-phenyl-8-oxa-1,3-diazaspiro[4.5]dec-3-ene-2-thione] |
| < 4.30 | Cc1ccc(C(=O)c2c[nH]c(C(=O)NCCCN3CCOCC3)c2)cc1 [4-(4-methylbenzoyl)-N-(3-morpholin-4-ylpropyl)-1H-pyrrole-2-carboxamide] |
| < 4.30 | O=C(CN1C(=O)COc2ccccc21)NCc1ccc(C(=O)O)cc1 [4-[[2-(3-oxidanylidene-1,4-benzoxazin-4-yl)ethanoylamino]methyl]benzoic acid] |
| < 4.30 | Cc1ccc(C(=O)Nc2cnc3sc(C)nn3c2=O)cc1 [4-methyl-N-(2-methyl-5-oxidanylidene-[1,3,4]thiadiazolo[3,2-a]pyrimidin-6-yl)benzamide] |
| < 4.30 | CC1(C)CC(=O)C=C(NCc2ccncc2)C1 [5,5-dimethyl-3-(4-pyridylmethylamino)cyclohex-2-en-1-one] |
| < 4.30 | CC(C)(C)NC(=O)CC(CC(=O)O)c1ccccc1 (stereo unspecified) [5-(tert-butylamino)-5-keto-3-phenyl-valeric acid] |
| < 4.30 | Cc1ccc(NC(=O)C2CC=CCC2C(=O)N2CCCCC2)cc1 (stereo unspecified) [6-(Piperidine-1-carbonyl)-cyclohex-3-enecarboxylic acid p-tolylamide] |
| < 4.30 | CC(C)Nc1nnc(SCC(=O)c2c(N)n(Cc3ccccc3)c(=O)n(C)c2=O)s1 [6-amino-1-benzyl-3-methyl-5-[2-[[5-(propan-2-ylamino)-1,3,4-thiadiazol-2-yl]sulfanyl]acetyl]pyrimidine-2,4-dione] |
| < 4.30 | COc1ccc(N(C)C2=NS(=O)(=O)c3ccccc32)cc1 [(1,1-Dioxo-1H-1lambda*6*-benzo[d]isothiazol-3-yl)-(4-methoxy-phenyl)-methyl-amine] |
| < 4.30 | CC1Cc2ccccc2N1C(=O)c1ccc2c(c1)nnn2C (stereo unspecified) [(1-methyl-5-benzotriazolyl)-(2-methyl-2,3-dihydroindol-1-yl)methanone] |
| < 4.30 | COc1cccc(OC)c1C(=O)N1CCN(c2ccccn2)CC1 [(2,6-dimethoxyphenyl)-(4-pyridin-2-ylpiperazin-1-yl)methanone] |
| < 4.30 | CCOC(=O)Cc1csc(NC(=O)CSc2nnc(-c3ccc(F)cc3)o2)n1 [(2-{2-[5-(4-Fluoro-phenyl)-[1,3,4]oxadiazol-2-ylsulfanyl]-acetylamino}-thiazol-4-yl)-acetic acid ethyl ester] |
| < 4.30 | COc1ccc2c(c1OC)C(=O)OC2CC(=O)O (stereo unspecified) [(4,5-dimethoxy-3-oxo-1,3-dihydro-2-benzofuran-1-yl)acetic acid] |
| < 4.30 | C/C(=C\C(=O)Nc1cc(C)on1)c1ccccc1 [(E)-N-(5-methyl-1,2-oxazol-3-yl)-3-phenyl-but-2-enamide] |
| < 4.30 | CCn1ccc(C(=O)Nc2ccc(N(C)C(C)=O)cc2)n1 [MLS000043435] |
| < 4.30 | Cc1ccccc1NS(=O)(=O)c1cc(C(=O)NCc2ccco2)ccc1C [MLS000052108] |
| < 4.30 | c1ccc(NCc2nnc3n2CCCCC3)cc1 [MLS000057041] |
